Data set [1] in a line: Paramagnetic relaxation properties in water at 10 MHz (0.15T), RADX spin analyzer. It counts as physicochemical. The note with it: 10 MHz (0.15T); for spin-lattice (T₁) relaxation value / spin-spin (T₂) relaxation value: 37°C, triplicate, mean +/- SD; for millimolar relaxivity for T₁ / millimolar relaxivity for T₂: in water; for millimolar relaxivity for T₁: calculated from T₁ and concentration; for millimolar relaxivity for T₂: calculated from T₂ and concentration. The protocol: The paramagnetic relaxation properties of [manganese(II)·(H₂O)₂·(L-alanine)₂]⁺²(Cl₂)⁻² in water were measured at 10 MHz (0.15T) with a spin analyzer (RADX; Houston, TX) at 37°C. After thermal equilibrium, the spin-lattice (T₁) and spin-spin (T₂) relaxation values were measured in triplicate.
The paramagnetic relaxation of the title compound in water was measured at 10 MHz (0.15T) with a spin analyzer (RADX; Houston, TX). After thermal equilibrium, the spin-lattice (T₁) and spin-spin (T₂) relaxation values were measured.
Relaxivity was measured at 10 MHz (0.15T) as described in Example 10.
The relaxivity of the title compound was performed at 0.15 T (10 MHz) with a RADX Spin Analyzer (Houston, TX) at 37°C.

Data set [2] can be described thus: Paramagnetic relaxation properties in human plasma at 37°C. In kind it is physicochemical. The following applies: for T₂ value / T₁ value / R₁ / R₂ / T₁ changed by (repeat measurement) / T₂ changed by (repeat measurement): 37°C; for T₁ value: triplicate; for T₁ changed by (repeat measurement) / T₂ changed by (repeat measurement): repeat measurement 80 minutes later; for T₂ relaxivity in plasma, fold greater than GdDTPA: versus GdDTPA; for T₁ relaxivity in plasma, fold greater than GdDTPA: versus gadolinium diethylenetriaminepentaacetic acid chelate (GdDTPA).

The structures appear in SMILES notation.

As for `N[C@@H](CO)C(=O)O.N[C@@H](CO)C(=O)O.O.O.[Cl-].[Cl-].[Mn+2]` [Manganese(II)·(H₂O)₂·(L-serine)₂]⁺²(Cl₂)⁻²], in data set [1] (0.989 mM solution in water), the “spin-lattice (T₁) relaxation value” is 111 ± 2 ms and the “spin-spin (T₂) relaxation value” amounted to 27 ± 1 ms. In data set [1], the “millimolar relaxivity for T₁” value is 9.19 mM⁻¹ s⁻¹ and the “millimolar relaxivity for T₂” value was 37.8 mM⁻¹ s⁻¹. In data set [2] (93 µM final concentration), this compound showed a T₂ value of 189 ± 6 ms and a T₁ value of 238 ± 9 ms. For the same compound, in data set [2], the R₁ stood at 45.2 mM⁻¹ s⁻¹, the R₂ worked out at 56.9 mM⁻¹ s⁻¹, the “T₁ changed by (repeat measurement)” value amounted to 3% and the “T₂ changed by (repeat measurement)” value was determined as 2%. Besides, in data set [2], the “T₂ relaxivity in plasma, fold greater than GdDTPA” value worked out at 11.9 fold and the “T₁ relaxivity in plasma, fold greater than GdDTPA” value is given as 9.4 fold.
On to `C[C@@H](O)[C@H](N)C(=O)O.C[C@@H](O)[C@H](N)C(=O)O.O.O.[Cl-].[Cl-].[Mn+2]` [Manganese(II)·(H₂O)₂·(L-threonine)₂]⁺²(Cl₂)⁻²], for which, in data set [1] (0.97 mM solution in water), the “spin-lattice (T₁) relaxation value” is 105 ± 1 ms and the “spin-spin (T₂) relaxation value” amounted to 28 ± 1 ms. For the same compound, in data set [1], the “millimolar relaxivity for T₁” value was 9.82 mM⁻¹ s⁻¹ and the “millimolar relaxivity for T₂” value was 36.8 mM⁻¹ s⁻¹. In data set [2] (92 µM final concentration), this compound had a T₂ value of 196 ± 17 ms and a T₁ value of 241 ± 7 ms. Further, in data set [2], the R₁ stood at 45.1 mM⁻¹ s⁻¹, the R₂ was determined as 55.5 mM⁻¹ s⁻¹, the “T₁ changed by (repeat measurement)” value worked out at 1% and the “T₂ changed by (repeat measurement)” value came out at 11%. Besides, in data set [2], the “T₂ relaxivity in plasma, fold greater than GdDTPA” value amounted to 11.6 fold and the “T₁ relaxivity in plasma, fold greater than GdDTPA” value amounted to 9.4 fold.
Take `CC(C)[C@H](N)C(=O)O.CC(C)[C@H](N)C(=O)O.O.O.[Cl-].[Cl-].[Mn+2]` [Manganese(II)·(H₂O)₂·(L-valine)₂]⁺²(Cl₂)⁻²]: in data set [1] (0.97 mM solution in water), the “spin-lattice (T₁) relaxation value” amounted to 113 ± 10 ms and the “spin-spin (T₂) relaxation value” came to 26 ± 1 ms. For the same compound, in data set [1], the “millimolar relaxivity for T₁” value was 9.12 mM⁻¹ s⁻¹ and the “millimolar relaxivity for T₂” value was 39.7 mM⁻¹ s⁻¹. In data set [2] (92 µM final concentration), the T₂ value stood at 191 ± 8 ms and the T₁ value was 250 ± 2 ms. Further, in data set [2], the R₁ is 43.5 mM⁻¹ s⁻¹, the R₂ came to 56.9 mM⁻¹ s⁻¹, the “T₁ changed by (repeat measurement)” value was found to be 4% and the “T₂ changed by (repeat measurement)” value amounted to 4%. Moreover, in data set [2], the “T₂ relaxivity in plasma, fold greater than GdDTPA” value is listed as 11.9 fold and the “T₁ relaxivity in plasma, fold greater than GdDTPA” value came to 9.1 fold.
Consider `C[C@H](N)C(=O)O.C[C@H](N)C(=O)O.O.O.[Cl-].[Cl-].[Mn+2]` [[Manganese(II)·(H₂O)₂·(L-alanine)₂]⁺²(Cl₂)⁻²], for which, in data set [1] (0.99 mM solution in water), the “spin-lattice (T₁) relaxation value” amounted to 104 ± 9 ms and the “spin-spin (T₂) relaxation value” worked out at 26 ± 1 ms. Moreover, in data set [1], the “millimolar relaxivity for T₁” value was 9.81 mM⁻¹ s⁻¹ and the “millimolar relaxivity for T₂” value is 39.3 mM⁻¹ s⁻¹. In data set [2] (94 µM final concentration), this compound registered a T₂ value of 187 ± 3 ms and a T₁ value of 238 ± 11 ms. Further, in data set [2], the R₁ came out at 44.7 mM⁻¹ s⁻¹, the R₂ was 56.9 mM⁻¹ s⁻¹, the “T₁ changed by (repeat measurement)” value is listed as 3% and the “T₂ changed by (repeat measurement)” value is 1%. Moreover, in data set [2], the “T₂ relaxivity in plasma, fold greater than GdDTPA” value is recorded as 11.9 fold and the “T₁ relaxivity in plasma, fold greater than GdDTPA” value came to 9.3 fold.
With `N=C(N)NCCC[C@H](N)C(=O)O.N=C(N)NCCC[C@H](N)C(=O)O.O.O.[Cl-].[Cl-].[Mn+2]` [[Manganese(II)·(H₂O)₂·(L-arginine)₂]⁺²(Cl₂)⁻²], in data set [1] (0.97 mM solution in water), the “spin-lattice (T₁) relaxation value” is 348 ± 7 ms and the “spin-spin (T₂) relaxation value” was determined as 97 ± 4 ms. Further, in data set [1], the “millimolar relaxivity for T₁” value was 2.96 mM⁻¹ s⁻¹ and the “millimolar relaxivity for T₂” value is 10.6 mM⁻¹ s⁻¹. In data set [2] (92 µM final concentration), this compound registered a T₂ value of 287 ± 11 ms and a T₁ value of 439 ± 27 ms. Moreover, in data set [2], the R₁ is 24.8 mM⁻¹ s⁻¹, the R₂ is 37.9 mM⁻¹ s⁻¹, the “T₁ changed by (repeat measurement)” value stood at 8% and the “T₂ changed by (repeat measurement)” value is recorded as 22%. Also, in data set [2], the “T₂ relaxivity in plasma, fold greater than GdDTPA” value was 7.9 fold and the “T₁ relaxivity in plasma, fold greater than GdDTPA” value is on record as 5.2 fold.
For the compound `NC(=O)CC[C@H](N)C(=O)O.NC(=O)CC[C@H](N)C(=O)O.O.O.[Cl-].[Cl-].[Mn+2]` [[Manganese(II)·(H₂O)₂·(L-glutamine)₂]⁺²(Cl₂)⁻²], in data set [1] (0.95 mM solution in water), the “spin-lattice (T₁) relaxation value” was determined as 108 ± 3 ms and the “spin-spin (T₂) relaxation value” came to 27 ± 0 ms. Also, in data set [1], the “millimolar relaxivity for T₁” value is 9.75 mM⁻¹ s⁻¹ and the “millimolar relaxivity for T₂” value is 39.0 mM⁻¹ s⁻¹. In data set [2] (90 µM final concentration), this compound came in with a T₂ value of 188 ± 8 ms and a T₁ value of 251 ± 18 ms. In addition, in data set [2], the R₁ came to 44.3 mM⁻¹ s⁻¹, the R₂ stood at 59.1 mM⁻¹ s⁻¹, the “T₁ changed by (repeat measurement)” value is 5% and the “T₂ changed by (repeat measurement)” value is “did not change”. Also, in data set [2], the “T₂ relaxivity in plasma, fold greater than GdDTPA” value amounted to 12.3 fold and the “T₁ relaxivity in plasma, fold greater than GdDTPA” value is listed as 9.2 fold.
Turning to `N[C@@H](Cc1c[nH]cn1)C(=O)O.N[C@@H](Cc1c[nH]cn1)C(=O)O.O.O.[Cl-].[Cl-].[Mn+2]` [[Manganese(II)·(H₂O)₂·(L-histidine)₂]⁺²(Cl₂)⁻²], in data set [1] (0.97 mM solution in water), the “spin-lattice (T₁) relaxation value” came to 112 ± 4 ms and the “spin-spin (T₂) relaxation value” is 29 ± 1 ms. In addition, in data set [1], the “millimolar relaxivity for T₁” value is 9.20 mM⁻¹ s⁻¹ and the “millimolar relaxivity for T₂” value is 35.6 mM⁻¹ s⁻¹. In data set [2] (92 µM final concentration), this compound had a T₂ value of 186 ± 3 ms and a T₁ value of 235 ± 2 ms. For the same compound, in data set [2], the R₁ is 46.3 mM⁻¹ s⁻¹, the R₂ amounted to 58.4 mM⁻¹ s⁻¹, the “T₁ changed by (repeat measurement)” value is recorded as 12% and the “T₂ changed by (repeat measurement)” value is reported as 1%. In data set [2], the “T₂ relaxivity in plasma, fold greater than GdDTPA” value was 12.2 fold and the “T₁ relaxivity in plasma, fold greater than GdDTPA” value was determined as 9.7 fold.
Take `O.O.O=C(O)[C@@H]1C[C@@H](O)CN1.O=C(O)[C@@H]1C[C@@H](O)CN1.[Cl-].[Cl-].[Mn+2]` [[Manganese(II)·(H₂O)₂·(L-hydroxyproline)₂]⁺²(Cl₂)⁻²]: in data set [1] (0.98 mM solution in water), the “spin-lattice (T₁) relaxation value” stood at 111 ± 3 ms and the “spin-spin (T₂) relaxation value” came to 26 ± 1 ms. In addition, in data set [1], the “millimolar relaxivity for T₁” value is 9.19 mM⁻¹ s⁻¹ and the “millimolar relaxivity for T₂” value was 39.3 mM⁻¹ s⁻¹. Moreover, in data set [2] (93 µM final concentration), the T₂ value was determined as 189 ± 9 ms and the T₁ value amounted to 246 ± 13 ms. In addition, in data set [2], the R₁ came to 43.7 mM⁻¹ s⁻¹, the R₂ worked out at 56.9 mM⁻¹ s⁻¹, the “T₁ changed by (repeat measurement)” value is “did not change” and the “T₂ changed by (repeat measurement)” value is 1%. Further, in data set [2], the “T₂ relaxivity in plasma, fold greater than GdDTPA” value was 11.9 fold and the “T₁ relaxivity in plasma, fold greater than GdDTPA” value was 9.1 fold.
Turning to `CC[C@H](C)[C@H](N)C(=O)O.CC[C@H](C)[C@H](N)C(=O)O.O.O.[Cl-].[Cl-].[Mn+2]` [[Manganese(II)·(H₂O)₂·(L-isoleucine)₂]⁺²(Cl₂)⁻²], in data set [1] (0.99 mM solution in water), the “spin-lattice (T₁) relaxation value” was determined as 109 ± 7 ms and the “spin-spin (T₂) relaxation value” was 28 ± 1 ms. Also, in data set [1], the “millimolar relaxivity for T₁” value was 9.66 mM⁻¹ s⁻¹ and the “millimolar relaxivity for T₂” value was 37.6 mM⁻¹ s⁻¹. In data set [2] (90 µM final concentration), this compound registered a T₂ value of 182 ± 5 ms and a T₁ value of 235 ± 7 ms. Besides, in data set [2], the R₁ turned out to be 47.3 mM⁻¹ s⁻¹, the R₂ is 61.1 mM⁻¹ s⁻¹, the “T₁ changed by (repeat measurement)” value was 2% and the “T₂ changed by (repeat measurement)” value is 8%. In data set [2], the “T₂ relaxivity in plasma, fold greater than GdDTPA” value is on record as 12.7 fold and the “T₁ relaxivity in plasma, fold greater than GdDTPA” value was found to be 9.9 fold.
Consider `CC(C)C[C@H](N)C(=O)O.CC(C)C[C@H](N)C(=O)O.O.O.[Cl-].[Cl-].[Mn+2]` [[Manganese(II)·(H₂O)₂·(L-leucine)₂]⁺²(Cl₂)⁻²], for which, in data set [1] (0.94 mM solution in water), the “spin-lattice (T₁) relaxation value” was 114 ± 9 ms and the “spin-spin (T₂) relaxation value” turned out to be 27 ± 1 ms. In data set [1], the “millimolar relaxivity for T₁” value is 9.33 mM⁻¹ s⁻¹ and the “millimolar relaxivity for T₂” value was 39.4 mM⁻¹ s⁻¹. In data set [2] (90 µM final concentration), the T₂ value amounted to 192 ± 0 ms and the T₁ value worked out at 243 ± 13 ms. Moreover, in data set [2], the R₁ worked out at 45.7 mM⁻¹ s⁻¹, the R₂ was 57.9 mM⁻¹ s⁻¹, the “T₁ changed by (repeat measurement)” value came out at 5% and the “T₂ changed by (repeat measurement)” value came to 4%. For the same compound, in data set [2], the “T₂ relaxivity in plasma, fold greater than GdDTPA” value is 12.1 fold and the “T₁ relaxivity in plasma, fold greater than GdDTPA” value came out at 9.5 fold.

Values taken from EP0308983A2, “NMR imaging with Mn(II) coordination compositions” (priority 1987, dated 1989).
